Counter-ions that a name gives are not always drawn.

Data set [1] deals with T1, thromboxane synthetase from rabbit platelet microsomes (Oryctolagus cuniculus, UniProt G1TAZ9).
T1 construct: thromboxane synthetase from rabbit platelet microsomes; from tissue; host or cells: rabbit platelet microsomes
T1 sequence (G1TAZ9 1-530): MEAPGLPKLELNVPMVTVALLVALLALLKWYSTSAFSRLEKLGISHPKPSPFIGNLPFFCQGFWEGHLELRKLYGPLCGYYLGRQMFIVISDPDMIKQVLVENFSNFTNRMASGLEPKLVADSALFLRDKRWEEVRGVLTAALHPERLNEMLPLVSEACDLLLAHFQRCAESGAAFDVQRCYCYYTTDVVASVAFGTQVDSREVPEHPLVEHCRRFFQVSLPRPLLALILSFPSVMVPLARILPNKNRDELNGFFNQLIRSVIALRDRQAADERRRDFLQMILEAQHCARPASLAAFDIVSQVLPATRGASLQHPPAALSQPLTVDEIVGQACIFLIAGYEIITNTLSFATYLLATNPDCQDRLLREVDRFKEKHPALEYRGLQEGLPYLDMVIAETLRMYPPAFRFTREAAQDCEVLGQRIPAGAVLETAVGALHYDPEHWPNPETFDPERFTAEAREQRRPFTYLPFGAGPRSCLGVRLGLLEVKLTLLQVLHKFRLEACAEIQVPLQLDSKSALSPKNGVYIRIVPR
In words: inhibition of thromboxane synthetase from rabbit platelet microsomes (conversion of prostaglandin H2 into thromboxane B2). Type of data set: biochemical.

Data set [2] concerns arachidonic acid-induced sudden deaths. Description: inhibitory effect on arachidonic acid-induced sudden deaths of rabbits. Type of data set: in vivo. The conditions noted are these: oral administration, 100 mg/kg animal body weight.
Data set [3] can be described thus: acute toxicity test, LD50 in mice. The conditions noted are these: mouse, in vivo, iv.
Data set [4] concerns thromboxane synthetase. Description: inhibitory action for thromboxane synthetase (prior art compounds). Type of data set: biochemical. The conditions noted are these: not completely satisfactory as a practical medication. An excerpt: However, since their inhibitory action for thromboxane synthetase is weak, these compounds are hardly applicable as practically effective medicines.
On the other hand, N-(6-methoxycarbonylhexyl)imidazole has already been synthesized by P. Matthias et al, and publicly known [Monatsch Chem., 108(5), 1059(1977)].

Take `CCCCC(CCCn1ccnc1)C(=O)OCC` (racemic) [1-[(4RS)-4-ethoxycarbonyloctyl]imidazole]: inhibition in data set [1] was half-maximal at 0.13 µM (IC50).
The same measure, in the same setting: as for `CC(CCCCCn1ccnc1)CC(=O)O` (racemic) [1-[(6RS)-7-carboxy-6-methylheptyl]imidazole hydrochloride], the figure is 0.048 µM.
Turning to `CC(CCCCCCn1ccnc1)C(=O)O.Cl` (racemic) [1-[(7RS)-7-carboxyoctyl]imidazole hydrochloride], the “inhibitory effect on arachidonic acid-induced sudden deaths of rabbits” value (“inhibitory effect … of rabbits” for short) in data set [2] is listed as “inhibitory effect”. Besides, in data set [1], the IC50 was 0.03 µM.
In data set [1], `CCOC(=O)C(C)CCCCCCn1ccnc1` (racemic) [1-[(7RS)-7-ethoxycarbonyloctyl]imidazole] displayed a 50% inhibitory concentration (IC50) of 0.2 µM.
Still for that read-out and setting: as for `CC(C)(CCCCCCC(=O)O)n1ccnc1` [1-(7-carboxy-1,1-dimethylheptyl)imidazole hydrochloride], the figure is 0.09 µM.
In the case of `Cl.O=C(O)CCCCC#CCn1ccnc1` [1-(7-carboxy-2-heptynyl)imidazole hydrochloride], the “inhibitory effect … of rabbits” value in data set [2] was “inhibitory effect”.
For `CC(C)(CCCCn1ccnc1)CCC(=O)O` [1-(7-carboxy-5,5-dimethylheptyl)imidazole hydrochloride], half-maximal inhibition in data set [1] (IC50) required 0.071 µM.
On to `CC(CCCCCn1ccnc1)C(C)C(=O)O.Cl` (stereo not shown) [1-(7-carboxy-6-methyloctyl)imidazole hydrochloride], for which, in data set [3], the LD50 turned out to be 330 mg/kg.
Turning to `CC(C)(CCCCCCn1ccnc1)C(=O)O.Cl` [1-(7-carboxy-7-methyloctyl)imidazole hydrochloride], the “inhibitory effect … of rabbits” value in data set [2] is reported as “inhibitory effect”.
Take `CCOC(=O)C(C)(C)CCCCCCn1ccnc1` [1-(7-ethoxycarbonyl-7-methyloctyl)imidazole]: the midpoint of inhibition in data set [1], the IC50, lay at 1 µM.
Take `O=C(O)/C=C/CCCCCn1ccnc1` [(E)-1-(7-carboxy-6-heptenyl)imidazole hydrochloride]: 0.07 µM corresponded to half-maximal inhibition in data set [1] (IC50).
Still for that read-out and setting: to `CCOC(=O)/C=C/CCCCCn1ccnc1` [(E)-1-(7-ethoxycarbonyl-6-heptenyl)imidazole] belongs 2.8 µM.
The same measure, in the same setting: as for `O=C(O)CCCC/C=C\Cn1ccnc1` [(Z)-1-(7-carboxy-2-heptenyl)imidazole hydrochloride], the figure is 0.056 µM.
In turn, `O=C(O)/C=C\CCCCCn1ccnc1` [(Z)-1-(7-carboxy-6-heptenyl)imidazole hydrochloride] registered an IC50 in data set [1] of 0.016 µM.
Regarding `COC(=O)CCCCCCn1ccnc1` [N-(6-methoxycarbonylhexyl)imidazole], the “inhibitory effect on thromboxane synthetase compared with imidazole or 1-methylimidazole” value in data set [4] was “stronger inhibitory effect”.

As usually defined, the IC50 is the midpoint of a concentration-inhibition curve. The low end stands for greater potency, the high end for weaker potency. As usually defined, the LD50 is the dose expected to kill half of the subjects tested. The low end stands for a more toxic substance, the high end for a less toxic substance.

For the origin of these results see patent US4355170A, “1-Substituted imidazole derivatives” (Ono Pharmaceutical Co., Ltd., priority 1978, dated 1982).
